From ChEMBL document CHEMBL4007467, “Effects of 6-paradol, an unsaturated ketone from gingers, on cytochrome P450-mediated drug metabolism” (Bioorg Med Chem Lett, 2017)

What was measured:
Format in all cases: ADME
Cytochrome P450 1A2 [1] = molecular target: T1, Cytochrome P450 1A2 (Homo sapiens, UniProt P05177); experiment: Inhibition of CYP1A2 in human liver microsomes using phenacetin as substrate preincubated for 10 mins followed by NADPH addition measured after 10 mins
T1 sequence (P05177 whole entry): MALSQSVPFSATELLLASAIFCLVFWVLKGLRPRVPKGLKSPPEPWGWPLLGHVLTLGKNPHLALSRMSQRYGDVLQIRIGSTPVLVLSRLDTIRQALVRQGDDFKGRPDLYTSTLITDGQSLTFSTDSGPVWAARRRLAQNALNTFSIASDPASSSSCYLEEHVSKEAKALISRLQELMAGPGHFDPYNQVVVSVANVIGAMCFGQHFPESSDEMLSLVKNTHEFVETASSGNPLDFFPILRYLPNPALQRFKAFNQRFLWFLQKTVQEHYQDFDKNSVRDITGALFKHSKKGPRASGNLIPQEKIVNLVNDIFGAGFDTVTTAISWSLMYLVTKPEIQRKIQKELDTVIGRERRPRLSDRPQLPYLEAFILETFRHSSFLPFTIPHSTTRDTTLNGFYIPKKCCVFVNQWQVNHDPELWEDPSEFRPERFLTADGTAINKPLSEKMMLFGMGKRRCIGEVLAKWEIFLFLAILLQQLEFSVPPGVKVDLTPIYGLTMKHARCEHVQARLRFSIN

Cytochrome P450 2B6 = molecular target: T2, Cytochrome P450 2B6 (Homo sapiens, UniProt P20813); experiment: Inhibition of CYP2B6 in human liver microsomes using bupropion as substrate preincubated for 10 mins followed by NADPH addition measured after 20 mins
T2 sequence (P20813 whole entry): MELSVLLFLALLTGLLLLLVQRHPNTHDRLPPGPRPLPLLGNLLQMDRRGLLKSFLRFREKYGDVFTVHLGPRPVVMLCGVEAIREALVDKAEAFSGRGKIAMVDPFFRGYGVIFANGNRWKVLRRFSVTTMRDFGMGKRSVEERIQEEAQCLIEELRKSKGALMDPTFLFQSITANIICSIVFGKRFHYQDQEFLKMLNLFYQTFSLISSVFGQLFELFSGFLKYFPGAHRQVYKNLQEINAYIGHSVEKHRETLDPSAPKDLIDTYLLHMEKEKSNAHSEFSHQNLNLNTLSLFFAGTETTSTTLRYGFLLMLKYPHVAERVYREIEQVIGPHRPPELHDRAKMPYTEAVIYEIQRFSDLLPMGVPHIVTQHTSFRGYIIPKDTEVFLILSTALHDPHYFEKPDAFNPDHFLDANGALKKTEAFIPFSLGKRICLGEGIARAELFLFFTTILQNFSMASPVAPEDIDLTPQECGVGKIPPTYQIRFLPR

Cytochrome P450 2C8 = molecular target: T3, Cytochrome P450 2C8 (Homo sapiens, UniProt P10632); experiment: Inhibition of CYP2C8 in human liver microsomes using amodiaquin as substrate preincubated for 10 mins followed by NADPH addition measured after 10 mins
T3 sequence (P10632 whole entry): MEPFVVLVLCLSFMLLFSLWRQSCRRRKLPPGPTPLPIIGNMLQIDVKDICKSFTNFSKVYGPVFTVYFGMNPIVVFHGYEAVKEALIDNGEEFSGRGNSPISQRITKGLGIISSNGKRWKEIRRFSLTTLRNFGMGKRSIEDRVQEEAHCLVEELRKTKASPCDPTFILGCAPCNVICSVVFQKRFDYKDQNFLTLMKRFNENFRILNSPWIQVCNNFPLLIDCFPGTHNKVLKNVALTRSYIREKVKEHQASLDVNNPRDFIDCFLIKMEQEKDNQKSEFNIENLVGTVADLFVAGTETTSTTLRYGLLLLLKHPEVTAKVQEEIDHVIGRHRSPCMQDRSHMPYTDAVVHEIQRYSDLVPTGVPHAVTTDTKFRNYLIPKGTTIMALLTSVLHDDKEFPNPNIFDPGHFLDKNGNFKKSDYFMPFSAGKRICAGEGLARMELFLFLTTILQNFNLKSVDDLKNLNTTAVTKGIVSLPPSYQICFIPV

Cytochrome P450 2C9 [2] = molecular target: T4, Cytochrome P450 2C9 (Homo sapiens, UniProt P11712); experiment: Inhibition of CYP2C9 in human liver microsomes using diclofenac as substrate preincubated for 10 mins followed by NADPH addition measured after 7 mins
T4 sequence (P11712 whole entry): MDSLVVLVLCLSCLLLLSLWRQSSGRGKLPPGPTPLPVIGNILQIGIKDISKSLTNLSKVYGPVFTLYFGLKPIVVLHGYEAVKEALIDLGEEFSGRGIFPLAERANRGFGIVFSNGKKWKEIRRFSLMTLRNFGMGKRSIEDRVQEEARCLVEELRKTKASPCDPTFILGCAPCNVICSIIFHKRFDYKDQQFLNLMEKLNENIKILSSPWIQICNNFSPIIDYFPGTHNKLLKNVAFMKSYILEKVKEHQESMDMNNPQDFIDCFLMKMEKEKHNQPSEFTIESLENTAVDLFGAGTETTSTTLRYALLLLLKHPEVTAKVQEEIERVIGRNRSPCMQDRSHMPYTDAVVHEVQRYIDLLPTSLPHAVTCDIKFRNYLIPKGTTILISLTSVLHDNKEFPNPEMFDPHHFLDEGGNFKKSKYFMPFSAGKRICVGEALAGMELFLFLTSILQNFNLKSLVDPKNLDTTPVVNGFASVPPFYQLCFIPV

Cytochrome P450 2C19 [3] = molecular target: T5, Cytochrome P450 2C19 (Homo sapiens, UniProt P33261); experiment: Inhibition of CYP2C19 in human liver microsomes using (S)-mephenytoin as substrate preincubated for 10 mins followed by NADPH addition measured after 40 mins
T5 sequence (P33261 whole entry): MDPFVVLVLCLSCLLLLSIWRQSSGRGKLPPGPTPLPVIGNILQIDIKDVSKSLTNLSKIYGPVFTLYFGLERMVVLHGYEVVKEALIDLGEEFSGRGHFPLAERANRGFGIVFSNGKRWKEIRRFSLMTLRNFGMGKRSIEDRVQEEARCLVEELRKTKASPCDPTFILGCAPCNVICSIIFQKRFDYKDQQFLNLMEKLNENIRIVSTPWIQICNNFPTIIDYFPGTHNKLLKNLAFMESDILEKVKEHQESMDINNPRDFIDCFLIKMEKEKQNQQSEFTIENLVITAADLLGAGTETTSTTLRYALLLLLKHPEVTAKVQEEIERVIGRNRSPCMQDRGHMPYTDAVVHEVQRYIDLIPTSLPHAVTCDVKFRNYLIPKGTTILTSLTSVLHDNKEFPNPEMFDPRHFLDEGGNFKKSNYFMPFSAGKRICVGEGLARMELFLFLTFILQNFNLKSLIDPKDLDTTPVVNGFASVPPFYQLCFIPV

Cytochrome P450 3A4 [4] = molecular target: T6, Cytochrome P450 3A4 (Homo sapiens, UniProt P08684); experiment: Inhibition of CYP3A4 in human liver microsomes using testosterone as substrate preincubated for 10 mins followed by NADPH addition measured after 10 mins
T6 sequence (P08684 whole entry): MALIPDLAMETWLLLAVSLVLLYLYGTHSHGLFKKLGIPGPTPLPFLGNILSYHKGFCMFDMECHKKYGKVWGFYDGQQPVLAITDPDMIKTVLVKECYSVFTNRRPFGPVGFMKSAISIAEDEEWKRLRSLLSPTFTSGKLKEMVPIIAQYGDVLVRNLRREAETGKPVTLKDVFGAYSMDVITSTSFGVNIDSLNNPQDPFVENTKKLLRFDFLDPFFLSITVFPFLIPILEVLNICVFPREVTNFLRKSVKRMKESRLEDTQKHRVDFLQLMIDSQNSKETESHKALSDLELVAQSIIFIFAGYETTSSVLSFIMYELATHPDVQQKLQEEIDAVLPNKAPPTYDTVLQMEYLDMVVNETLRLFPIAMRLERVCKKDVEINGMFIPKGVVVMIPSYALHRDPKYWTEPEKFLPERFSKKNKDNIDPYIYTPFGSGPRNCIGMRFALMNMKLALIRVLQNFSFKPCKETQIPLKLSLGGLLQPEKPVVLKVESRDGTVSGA

Cytochrome P450 2A6 = molecular target: T7, Cytochrome P450 2A6 (Homo sapiens, UniProt P11509); experiment: Inhibition of CYP2A6 in human liver microsomes using Coumarin as substrate preincubated for 10 mins followed by NADPH addition measured after 15 mins
T7 sequence (P11509 whole entry): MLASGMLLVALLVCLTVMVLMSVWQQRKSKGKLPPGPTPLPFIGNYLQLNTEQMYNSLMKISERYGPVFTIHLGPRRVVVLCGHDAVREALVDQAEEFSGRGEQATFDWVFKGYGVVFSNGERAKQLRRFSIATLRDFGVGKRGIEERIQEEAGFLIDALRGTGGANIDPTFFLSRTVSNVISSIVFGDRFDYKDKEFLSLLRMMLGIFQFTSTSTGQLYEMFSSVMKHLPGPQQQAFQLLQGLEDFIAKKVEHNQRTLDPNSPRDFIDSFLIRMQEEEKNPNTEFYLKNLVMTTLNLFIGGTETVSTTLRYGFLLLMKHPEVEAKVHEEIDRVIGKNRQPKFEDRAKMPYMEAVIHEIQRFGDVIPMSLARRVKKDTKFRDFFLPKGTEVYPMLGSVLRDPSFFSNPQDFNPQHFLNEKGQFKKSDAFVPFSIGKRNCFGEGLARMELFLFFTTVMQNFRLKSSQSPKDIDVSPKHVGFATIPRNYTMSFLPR

Cytochrome P450 2D6 [5] = molecular target: T8, Cytochrome P450 2D6 (Homo sapiens, UniProt P10635); experiment: Inhibition of CYP2D6 in human liver microsomes using dextromethorphan as substrate preincubated for 10 mins followed by NADPH addition measured after 15 mins
T8 sequence (P10635 whole entry): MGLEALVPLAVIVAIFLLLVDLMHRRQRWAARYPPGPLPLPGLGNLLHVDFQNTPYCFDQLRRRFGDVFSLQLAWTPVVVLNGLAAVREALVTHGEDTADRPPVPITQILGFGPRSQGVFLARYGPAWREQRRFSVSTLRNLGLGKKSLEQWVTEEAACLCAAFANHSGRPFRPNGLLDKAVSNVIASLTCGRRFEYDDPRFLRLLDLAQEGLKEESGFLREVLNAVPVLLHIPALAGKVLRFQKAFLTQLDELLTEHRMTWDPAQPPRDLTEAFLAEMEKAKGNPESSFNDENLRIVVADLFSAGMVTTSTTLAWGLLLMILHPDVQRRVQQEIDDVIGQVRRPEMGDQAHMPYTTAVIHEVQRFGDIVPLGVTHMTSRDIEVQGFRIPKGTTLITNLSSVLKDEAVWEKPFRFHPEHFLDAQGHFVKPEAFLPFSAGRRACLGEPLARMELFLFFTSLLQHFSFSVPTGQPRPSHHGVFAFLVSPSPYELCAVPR

Cytochrome P450 2E1 [6] = molecular target: T9, Cytochrome P450 2E1 (Homo sapiens, UniProt P05181); experiment: Inhibition of CYP2E1 in human liver microsomes using chlorzoxazone as substrate preincubated for 10 mins followed by NADPH addition measured after 20 mins
T9 sequence (P05181 whole entry): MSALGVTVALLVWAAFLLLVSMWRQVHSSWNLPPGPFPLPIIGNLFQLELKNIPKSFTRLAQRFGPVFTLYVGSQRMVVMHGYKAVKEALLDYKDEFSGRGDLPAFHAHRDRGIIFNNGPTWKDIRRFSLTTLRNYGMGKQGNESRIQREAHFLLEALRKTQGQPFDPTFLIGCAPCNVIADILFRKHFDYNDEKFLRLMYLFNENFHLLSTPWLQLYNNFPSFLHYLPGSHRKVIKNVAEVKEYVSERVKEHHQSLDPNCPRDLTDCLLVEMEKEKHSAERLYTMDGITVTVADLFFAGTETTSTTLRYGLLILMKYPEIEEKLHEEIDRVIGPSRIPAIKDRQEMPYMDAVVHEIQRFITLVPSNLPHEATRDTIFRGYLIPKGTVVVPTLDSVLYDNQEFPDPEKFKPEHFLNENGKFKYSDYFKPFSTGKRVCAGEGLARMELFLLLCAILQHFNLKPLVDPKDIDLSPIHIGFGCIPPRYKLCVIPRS

Cytochrome P450 2C9 [7] = molecular target: T4, Cytochrome P450 2C9; experiment: Inhibition of recombinant human CYP2C9 expressed in baculosomes using Vivid OOMR substrate red measured every 30 sec for 30 mins by fluorescence assay
Cytochrome P450 2C19 [8] = molecular target: T5, Cytochrome P450 2C19; experiment: Inhibition of recombinant human CYP2C19 expressed in baculosomes using Vivid EOMCC substrate blue measured every 30 sec for 30 mins by fluorescence assay
Cytochrome P450 3A4 [9] = molecular target: T6, Cytochrome P450 3A4; experiment: Inhibition of recombinant human CYP3A4 expressed in baculosomes using Vivid DBOMF substrate green measured every 30 sec for 30 mins by fluorescence assay
Cytochrome P450 3A4 [10] = molecular target: T6, Cytochrome P450 3A4; experiment: Inhibition of recombinant human CYP3A4 expressed in baculosomes using Vivid BOMR substrate red measured every 30 sec for 30 mins by fluorescence assay
Cytochrome P450 3A4 [11] = molecular target: T6, Cytochrome P450 3A4; experiment: Inhibition of recombinant human CYP3A4 expressed in baculosomes using Vivid BOMCC substrate blue measured every 30 sec for 30 mins by fluorescence assay
Cytochrome P450 2D6 [12] = molecular target: T8, Cytochrome P450 2D6; experiment: Inhibition of recombinant human CYP2D6 expressed in baculosomes using Vivid EOMCC substrate blue measured every 30 sec for 30 mins by fluorescence assay
Cytochrome P450 3A4 [13] = molecular target: T6, Cytochrome P450 3A4; experiment: Inhibition of CYP3A4 in human liver microsomes using midazolam as substrate
Cytochrome P450 3A4 [14] = molecular target: T6, Cytochrome P450 3A4; experiment: Inhibition of CYP3A4 in human liver microsomes using midazolam as substrate preincubated for 10 mins followed by NADPH addition measured after 5 mins
Cytochrome P450 1A2 [15] = molecular target: T1, Cytochrome P450 1A2; experiment: Inhibition of CYP1A2 in human liver microsomes using phenacetin as substrate by HPLC analysis
Cytochrome P450 2C9 [16] = molecular target: T4, Cytochrome P450 2C9; experiment: Inhibition of CYP2C9 in human liver microsomes using tolbutamide as substrate by HPLC analysis
Cytochrome P450 2C19 [17] = molecular target: T5, Cytochrome P450 2C19; experiment: Inhibition of CYP2C19 in human liver microsomes using (S)-mephenytoin as substrate by HPLC analysis
Cytochrome P450 2E1 [18] = molecular target: T9, Cytochrome P450 2E1; experiment: Inhibition of CYP2E1 in human liver microsomes using chlorzoxazone as substrate by HPLC analysis

IC50 (Cytochrome P450 1A2 [1]) [µM]	IC50 (Cytochrome P450 2B6) [µM]	IC50 (Cytochrome P450 2C8) [µM]	IC50 (Cytochrome P450 2C9 [2]) [µM]	IC50 (Cytochrome P450 2C19 [3]) [µM]	IC50 (Cytochrome P450 3A4 [4]) [µM]	IC50 (Cytochrome P450 2A6) [µM]	IC50 (Cytochrome P450 2D6 [5]) [µM]	IC50 (Cytochrome P450 2E1 [6]) [µM]	IC50 (Cytochrome P450 2C9 [7]) [µM]	IC50 (Cytochrome P450 2C19 [8]) [µM]	IC50 (Cytochrome P450 3A4 [9]) [µM]	IC50 (Cytochrome P450 3A4 [10]) [µM]	IC50 (Cytochrome P450 3A4 [11]) [µM]	Compound	further results
27.3	8.1	2.2	8.7	8.1	8.1	59	74.5	93.2	6.8	12.5	11.6	10.5	8.7	CCCCCCC[C@H](O)CC(=O)CCc1ccc(O)c(OC)c1	IC50 (Cytochrome P450 2D6 [12]): 42.7 µM
–	4.3	2	7.5	6.6	7.1	98.3	54.9	–	16.3	13.6	21.8	24.9	20.8	CCCCCCCCC[C@H](O)CC(=O)CCc1ccc(O)c(OC)c1	–
2.5	5.8	2.9	3.3	–	8.3	83.3	87	76.1	–	–	–	4	–	CCCCC/C=C/C(=O)CCc1ccc(O)c(OC)c1 [SHOGAOL]	IC50 (Cytochrome P450 3A4 [14]): 65.2 µM; IC50 (Cytochrome P450 1A2 [15]): 20.7 µM; IC50 (Cytochrome P450 2C9 [16]): 29.2 µM; IC50 (Cytochrome P450 2C19 [17]): 18.8 µM; IC50 (Cytochrome P450 2E1 [18]): 99.6 µM

Compound	IC50 (Cytochrome P450 1A2 [1]) [µM]	IC50 (Cytochrome P450 2B6) [µM]	IC50 (Cytochrome P450 2C8) [µM]	IC50 (Cytochrome P450 2C9 [2]) [µM]	IC50 (Cytochrome P450 2C19 [3]) [µM]	IC50 (Cytochrome P450 3A4 [4]) [µM]	IC50 (Cytochrome P450 2A6) [µM]	IC50 (Cytochrome P450 2D6 [5]) [µM]	IC50 (Cytochrome P450 2E1 [6]) [µM]	IC50 (Cytochrome P450 2C9 [7]) [µM]	IC50 (Cytochrome P450 2C19 [8]) [µM]	IC50 (Cytochrome P450 3A4 [9]) [µM]	IC50 (Cytochrome P450 3A4 [10]) [µM]	IC50 (Cytochrome P450 3A4 [11]) [µM]	further results
CCCCC[C@H](O)CC(=O)CCc1ccc(O)c(OC)c1 [GINGEROL]	–	40.8	–	–	–	–	–	–	–	12.1	30.7	32	42.9	21.8	IC50 (Cytochrome P450 3A4 [13]): 73.4 µM
